This is an account of results in ChEMBL document CHEMBL3272108, “Analogues of sparteine. 5. Antiarrhythmic activity of selected N,N'-disubstituted bispidines” (J Med Chem, 1977).

Active and inactive are the calls of the source. The rule behind the calls is not given here.

Usually ED50 stands for the dose at which the effect has come halfway, by size or by number of responders. As a reminder, the logD is lipophilicity at a set pH, counting ionised and neutral species. As usually defined, the LD50 is the dose at which mortality reaches 50%. Lower therefore signals a more toxic substance.

Data set [1] concerns Mus musculus. Kind of data set: Antiarrhythmic activity in ip dosed CF1 mouse by chloroform-fibrillation assay based ECG analysis. In kind it is functional. The following applies: CF1, Heart.
The nature of data set [2]: Therapeutic index, ratio of LD50 for CF1 mouse to ED50 for antiarrhythmic activity in CF1 mouse. The following applies: in vivo.
Data set [3] is described as follows: Octanol-phosphate buffer apparent partition coefficient, log D of the compound at pH 7.4 by GLC analysis. Format: physicochemical.
Data set [4] in a line: Acute toxicity in ip dosed CF1 mouse. The conditions noted are these: in vivo.
Data set [5] in a line: Binding affinity to magnesium nitrate in anhydrous dimethyl-d6-sulfoxide solvent by proton magnetic resonance analysis.
A short description of data set [6]: Binding affinity to calcium salt in methanol-d4 solvent by proton magnetic resonance analysis.
Data set [7] is described as follows: Binding affinity to magnesium salt in methanol-d4 solvent by proton magnetic resonance analysis.
The nature of data set [8]: Binding affinity to calcium nitrate in anhydrous dimethyl-d6-sulfoxide solvent by proton magnetic resonance analysis.

In data set [1], `CC(C)C1C2CC(CN(C)C2)CN1C.Cl` (stereo not given) registered an ED50 of 191 µmol/kg. The selectivity ratio in data set [2] was determined as 1.46. Besides, the logD in data set [3] is -3.4. Further, the LD50 in data set [4] stood at 279 µmol/kg.

With `C1CCN2C[C@@H]3C[C@@H](CN4CCCC[C@@H]34)[C@H]2C1.O.O.O.O.O.O=S(=O)(O)O` [SPARTEINE SULFATE], in data set [1], the 50% effect level (ED50) was put at a dose of 150 µmol/kg. Besides, the selectivity ratio in data set [2] came out at 0.89. Further, the logD in data set [3] is -1.57. Further, the outcome in data set [5] and in data set [8] was inactive. Further, the result in data set [6] and in data set [7] was Active. Moreover, the LD50 in data set [4] came out at 134 µmol/kg.

As to `Cl.c1ccc(CN2CC3CC(C2)CN(Cc2ccccc2)C3)cc1`, the ED50 in data set [1] came out at 160 µmol/kg. In addition, in data set [2], the selectivity ratio turned out to be 1.24. For the same molecule, the logD in data set [3] was -0.43. The result in data set [5] and in data set [8] was inactive. In data set [4], this molecule displayed a median lethal dose (LD50) of 199 µmol/kg.

In data set [1], `CC(C)N(CCC(C(N)=O)(c1ccccc1)c1ccccn1)C(C)C` (stereo not given) [DISOPYRAMIDE] registered an ED50 of 60 µmol/kg. Also, the selectivity ratio in data set [2] was found to be 8.4. In data set [4], this molecule returned an LD50 of 504 µmol/kg.

For `CCCCN1CC2CC(C1)CN(Cc1ccccc1)C2.Cl`, the 50% effect level in data set [1] (ED50) was put at a dose of 159 µmol/kg. Further, the selectivity ratio in data set [2] turned out to be 1.25. In data set [3], the logD was -1.22. In addition, the result in data set [5] and in data set [8] was inactive. This molecule displayed an LD50 in data set [4] of 198 µmol/kg.

In the case of `Br.CCCCN1CC2CC(CN(C)C2)C1`, it took a dose of 192 µmol/kg to reach the 50% effect level in data set [1] (ED50). In addition, in data set [2], the selectivity ratio amounted to 1.08. Besides, the log distribution coefficient (logD) in data set [3] is -3.39. Further, the LD50 in data set [4] worked out at 207 µmol/kg.

In data set [1], `CN1CC2CC(C1)CN(Cc1ccccc1)C2.CS(=O)(=O)O` registered an ED50 of 154 µmol/kg. The selectivity ratio in data set [2] was determined as 1.23. Also, the logD in data set [3] was -2.57. For the same molecule, the result in data set [6] and in data set [7] was Active. Besides, in data set [4], the LD50 was 189 µmol/kg.

With `CCCCN1CC2CC(C1)CN(CCCC)C2.Cl`, the 50% effect level in data set [1] (ED50) was put at a dose of 170 µmol/kg. Moreover, the selectivity ratio in data set [2] came to 1.23. The logD in data set [3] was -2.07. Further, the LD50 in data set [4] was 196 µmol/kg.

In turn, `CN1CC2CC(C1)CN(C(c1ccccc1)c1ccccc1)C2.Cl` displayed a 50% effective dose (ED50) in data set [1] of 259 µmol/kg. In addition, the selectivity ratio in data set [2] stood at 0.87. For the same molecule, the logD in data set [3] is -0.43. This molecule also registered an LD50 in data set [4] of 225 µmol/kg.
